Experimental data from ChEMBL document CHEMBL4041543, “Light induced drug release from a folic acid-drug conjugate” (Bioorg Med Chem Lett, 2017).

Experiment: Drug level treated with Photo Dox-Fol conjugate assessed as photolysis-mediated compound release in presence of 1.1 J/cm2 UV light irradiation by RP-HPLC method

## COc1cccc2c1C(=O)c1c(O)c3c(c(O)c1C2=O)C[C@@](O)(C(=O)CO)C[C@@H]3O[C@H]1C[C@H](N)[C@H](O)[C@H](C)O1
  Drug metabolism: Metabolite detected
